# Experimental data: US6992169B2, “Carrier based drug delivery system” (Cyclacel Limited, priority 1998, dated 2006)
# Columns and labels:
# HaCaT cells = experiment: In vitro cytotoxic activity, inhibition of cell proliferation, ATP bioluminescence (ViaLight); type: cell-based, human
# Method: (§1) This compound (abbreviated ‘MTX-Pen’ in the tables below) was evaluated for its ability to inhibit cell proliferation of normal (immortalised) human cells (HaCaT cells, Tables 1 & 2) and a human colorectal cancer cell line (HT29, Table 3).
# (§2) Assay procedure—Cells were seeded into 96-well plates at 2,500 cells/well in DMEM with 10% FCS and antibiotics. After overnight incubation, test compound dilutions in cell medium were prepared and were added to the cells. Samples were taken 1, 2, 3, and 4 days after compound addition. Nucleotide Releasing Reagent (LumiTech ViaLight kit) was added in order to lyse the cells and release ATP. After incubation at room temperature (5 min), the mixtures were transferred to opaque 96-well plates and stored at −20° C. until analysis. After loading plates into a luminometer (Lucy 1, Labtech International), ATP Monitoring Reagent (20 μL/well, LumiTech ViaLight kit) was added to each well successively and light intensity was measured immediately. Six readings were taken per sample. Each assay point was established using six replicates and appropriate controls. […] Statistically significant results in the tables below are printed in bold face.
# (§3) This compound (abbreviated ‘MTX-Pen’ in tables below) was evaluated for its ability to inhibit cell proliferation of normal (immortalised) human cells (HaCaT cells, Tables 1 & 2) and a human colorectal cancer cell line (HT29, Table 3).
# (§4) Assay procedure—Cells were seeded into 96-well plates at 2,500 cells/well in DMEM with 10% foetal calf serum and antibiotics. After overnight incubation, test compound dilutions in cell medium were prepared and were added to the cells. Samples were taken 1, 2, 3, and 4 days after compound addition. Nucleotide Releasing Reagent (LumiTech ViaLight kit) was added in order to lyse the cells and release ATP. After incubation at room temperature (5 min), the mixtures were transferred to opaque 96-well plates and stored at −20° C. until analysis. After loading plates into a luminometer (Lucy 1, Labtech International), ATP Monitoring Reagent ([…], LumiTech ViaLight kit) was added to each well successively and light intensity was measured immediately. Six readings were taken per sample. Each assay point was established using six replicates and appropriate controls.
# HT29 = experiment: as above; type: cell-based, human
# Method: as §1, §2, §3, §4
structure (smiles),measurement,setting,value
"CN(Cc1cnc2nc(N)nc(N)c2n1)c1ccc(C(=O)N[C@@H](CCC(=O)O)C(=O)O)cc1 [MTX, methotrexate]",% Cell Death,"HaCaT cells; Table 1, HaCaT, Dose 0.2 μM, Day 1",7%
same,% Cell Death,"HaCaT cells; Table 1, HaCaT, Dose 0.2 μM, Day 2",11%
same,% Cell Death,"HaCaT cells; Table 1, HaCaT, Dose 0.2 μM, Day 3",79%
same,% Cell Death,"HaCaT cells; Table 1, HaCaT, Dose 0.2 μM, Day 4",93%
same,% Cell Death,"HaCaT cells; Table 1, HaCaT, Dose 0.5 μM, Day 1",−4%
same,% Cell Death,"HaCaT cells; Table 1, HaCaT, Dose 0.5 μM, Day 2",31%
same,% Cell Death,"HaCaT cells; Table 1, HaCaT, Dose 0.5 μM, Day 3",75%
same,% Cell Death,"HaCaT cells; Table 1, HaCaT, Dose 0.5 μM, Day 4",93%
same,% Cell Death,"HaCaT cells; Table 1, HaCaT, Dose 1.5 μM, Day 1",13%
same,% Cell Death,"HaCaT cells; Table 1, HaCaT, Dose 1.5 μM, Day 2",31%
same,% Cell Death,"HaCaT cells; Table 1, HaCaT, Dose 1.5 μM, Day 3",77%
same,% Cell Death,"HaCaT cells; Table 1, HaCaT, Dose 1.5 μM, Day 4",94%
same,% Cell Death,"HaCaT cells; Table 1, HaCaT, Dose 4.4 μM, Day 1",4%
same,% Cell Death,"HaCaT cells; Table 1, HaCaT, Dose 4.4 μM, Day 2",24%
same,% Cell Death,"HaCaT cells; Table 1, HaCaT, Dose 4.4 μM, Day 3",77%
same,% Cell Death,"HaCaT cells; Table 1, HaCaT, Dose 4.4 μM, Day 4",93%
same,% Cell Death,"HaCaT cells; Table 1, HaCaT, Dose 13.3 μM, Day 1",22%
same,% Cell Death,"HaCaT cells; Table 1, HaCaT, Dose 13.3 μM, Day 2",35%
same,% Cell Death,"HaCaT cells; Table 1, HaCaT, Dose 13.3 μM, Day 3",82%
same,% Cell Death,"HaCaT cells; Table 1, HaCaT, Dose 13.3 μM, Day 4",92%
same,% Cell Death,"HaCaT cells; Table 1, HaCaT, Dose 40.0 μM, Day 1",4%
same,% Cell Death,"HaCaT cells; Table 1, HaCaT, Dose 40.0 μM, Day 2",15%
same,% Cell Death,"HaCaT cells; Table 1, HaCaT, Dose 40.0 μM, Day 3",79%
same,% Cell Death,"HaCaT cells; Table 1, HaCaT, Dose 40.0 μM, Day 4",92%
same,% Cell Death,"HaCaT cells; Table 2, HaCaT, Dose 0.1 μM, Day 1",19%
same,% Cell Death,"HaCaT cells; Table 2, HaCaT, Dose 0.1 μM, Day 2",7%
same,% Cell Death,"HaCaT cells; Table 2, HaCaT, Dose 0.1 μM, Day 3",45%
same,% Cell Death,"HaCaT cells; Table 2, HaCaT, Dose 0.1 μM, Day 4",65%
same,% Cell Death,"HaCaT cells; Table 2, HaCaT, Dose 0.2 μM, Day 1",3%
same,% Cell Death,"HaCaT cells; Table 2, HaCaT, Dose 0.2 μM, Day 2",41%
same,% Cell Death,"HaCaT cells; Table 2, HaCaT, Dose 0.2 μM, Day 3",94%
same,% Cell Death,"HaCaT cells; Table 2, HaCaT, Dose 0.2 μM, Day 4",86%
same,% Cell Death,"HaCaT cells; Table 2, HaCaT, Dose 0.5 μM, Day 1",0%
same,% Cell Death,"HaCaT cells; Table 2, HaCaT, Dose 0.5 μM, Day 2",59%
same,% Cell Death,"HaCaT cells; Table 2, HaCaT, Dose 0.5 μM, Day 3",96%
same,% Cell Death,"HaCaT cells; Table 2, HaCaT, Dose 0.5 μM, Day 4",91%
same,% Cell Death,"HaCaT cells; Table 2, HaCaT, Dose 1.5 μM, Day 1",14%
same,% Cell Death,"HaCaT cells; Table 2, HaCaT, Dose 1.5 μM, Day 2",67%
same,% Cell Death,"HaCaT cells; Table 2, HaCaT, Dose 1.5 μM, Day 3",96%
same,% Cell Death,"HaCaT cells; Table 2, HaCaT, Dose 1.5 μM, Day 4",91%
same,% Cell Death,"HaCaT cells; Table 2, HaCaT, Dose 4.4 μM, Day 1",21%
same,% Cell Death,"HaCaT cells; Table 2, HaCaT, Dose 4.4 μM, Day 2",70%
same,% Cell Death,"HaCaT cells; Table 2, HaCaT, Dose 4.4 μM, Day 3",97%
same,% Cell Death,"HaCaT cells; Table 2, HaCaT, Dose 4.4 μM, Day 4",92%
same,% Cell Death,"HT29; Table 3, HT 29, Dose 0.1 μM, Day 1",6%
same,% Cell Death,"HT29; Table 3, HT 29, Dose 0.1 μM, Day 2",−17%
same,% Cell Death,"HT29; Table 3, HT 29, Dose 0.1 μM, Day 3",52%
same,% Cell Death,"HT29; Table 3, HT 29, Dose 0.1 μM, Day 4",84%
same,% Cell Death,"HT29; Table 3, HT 29, Dose 0.2 μM, Day 1",10%
same,% Cell Death,"HT29; Table 3, HT 29, Dose 0.2 μM, Day 2",−5%
same,% Cell Death,"HT29; Table 3, HT 29, Dose 0.2 μM, Day 3",54%
same,% Cell Death,"HT29; Table 3, HT 29, Dose 0.2 μM, Day 4",85%
same,% Cell Death,"HT29; Table 3, HT 29, Dose 0.5 μM, Day 1",15%
same,% Cell Death,"HT29; Table 3, HT 29, Dose 0.5 μM, Day 2",−12%
same,% Cell Death,"HT29; Table 3, HT 29, Dose 0.5 μM, Day 3",52%
same,% Cell Death,"HT29; Table 3, HT 29, Dose 0.5 μM, Day 4",88%
same,% Cell Death,"HT29; Table 3, HT 29, Dose 1.5 μM, Day 1",17%
same,% Cell Death,"HT29; Table 3, HT 29, Dose 1.5 μM, Day 2",−5%
same,% Cell Death,"HT29; Table 3, HT 29, Dose 1.5 μM, Day 3",48%
same,% Cell Death,"HT29; Table 3, HT 29, Dose 1.5 μM, Day 4",84%
same,% Cell Death,"HT29; Table 3, HT 29, Dose 4.4 μM, Day 1",−14%
same,% Cell Death,"HT29; Table 3, HT 29, Dose 4.4 μM, Day 2",−4%
same,% Cell Death,"HT29; Table 3, HT 29, Dose 4.4 μM, Day 3",58%
same,% Cell Death,"HT29; Table 3, HT 29, Dose 4.4 μM, Day 4",86%
